The values that follow come from ChEMBL document CHEMBL3407338, “Synthesis and structure-activity relationship of novel 1,4-diazabicyclo[2.2.2]octane derivatives as potent antimicrobial agents” (Eur J Med Chem, 2015).

≈ marks a conversion by molar mass, not a printed value.

One experiment has as its system MEF. Put plainly: Cytotoxicity against mouse MEF cells after 72 hrs by MTT assay. Format: cell-based.
Details: not given
On the technique in general: Formazan colour is commonly taken as a measure of viable cells.
As for `CCCCCCCCCCCCCC[N+]12CC[N+](CCCCC[N+]34CC[N+](CCCCCCCCCCCCCC)(CC3)CC4)(CC1)CC2.[Br-].[Br-].[Br-].[Br-]`, the IC50 is 127 µg/mL.

`CC[C@@]1(O)C(=O)OCc2c1cc1n(c2=O)Cc2cc3ccccc3nc2-1` [CAMPTOTHECIN] had an IC50 of 5.87 µg/mL (≈ 16.9 µM).

For a further experiment, the system named is Escherichia coli. Put plainly: Antimicrobial activity against 10^7 CFU/ml Escherichia coli ATCC 25922 after 22 hrs by serial microdilution method. Type of experiment: functional. To be noted: ATCC 25922, 22 h. In general terms: Broth dilution looks for growth in wells or tubes with falling amounts of substance.
As to `CCCCCCCCCCCCCC[N+]12CC[N+](CCCCC[N+]34CC[N+](CCCCCCCCCCCCCC)(CC3)CC4)(CC1)CC2.[Br-].[Br-].[Br-].[Br-]`, the MBC is above 100 µg/mL and the minimum inhibitory concentration (MIC) was determined as 50 µg/mL.

The next experiment concerns Candida albicans. The experiment is described as follows: Antimicrobial activity against 10^4 CFU/ml Candida albicans ATCC 32354 after 22 hrs by serial microdilution method. To be noted: ATCC 32354, 22 h. Format: functional.
`CCCCCCCCCCCCCC[N+]12CC[N+](CCCCC[N+]34CC[N+](CCCCCCCCCCCCCC)(CC3)CC4)(CC1)CC2.[Br-].[Br-].[Br-].[Br-]` came in with an MBC of 25 µg/mL and an MIC of 25 µg/mL.

Another experiment deals with Escherichia coli. Put plainly: Antimicrobial activity against Escherichia coli ATCC 25922 at 1 ug/ml after 24 hrs by agar diffusion method. Type of experiment: functional. To be noted: ATCC 25922, 24 h, read-out: DIZ. On the technique in general: In agar diffusion tests the substance spreads into inoculated agar from a disc or well.
In the case of `CCCCCCCCCCCCCC[N+]12CC[N+](CCCCC[N+]34CC[N+](CCCCCCCCCCCCCC)(CC3)CC4)(CC1)CC2.[Br-].[Br-].[Br-].[Br-]`, the zone of inhibition at 1 µg/mL came out at 7 mm.

A further experiment deals with HEK-293T. The experiment is described as follows: Cytotoxicity against human HEK293T cells after 72 hrs by MTT assay. Type of experiment: cell-based.
Details: not given
Consider `CCCCCCCCCCCCCC[N+]12CC[N+](CCCCC[N+]34CC[N+](CCCCCCCCCCCCCC)(CC3)CC4)(CC1)CC2.[Br-].[Br-].[Br-].[Br-]`, for which the IC50 is 400 µg/mL.

The subject of the next experiment is Bacillus subtilis. Put plainly: Antimicrobial activity against 10^4 CFU/ml Bacillus subtilis ATCC 6633 after 22 hrs by serial microdilution method. Format: functional. To be noted: ATCC 6633, 22 h.
`CCCCCCCCCCCCCC[N+]12CC[N+](CCCCC[N+]34CC[N+](CCCCCCCCCCCCCC)(CC3)CC4)(CC1)CC2.[Br-].[Br-].[Br-].[Br-]` registered an MBC of 12.5 µg/mL and an MIC of 12.5 µg/mL.

Another experiment concerns RPMI-8226. Put plainly: Cytotoxicity against human RPMI8226 cells after 72 hrs by MTT assay. Type of experiment: cell-based. To be noted: RPMI-8226, 72 h.
For the molecule `CCCCCCCCCCCCCC[N+]12CC[N+](CCCCC[N+]34CC[N+](CCCCCCCCCCCCCC)(CC3)CC4)(CC1)CC2.[Br-].[Br-].[Br-].[Br-]`, inhibition was half-maximal at 252 µg/mL (IC50).

For `CC[C@@]1(O)C(=O)OCc2c1cc1n(c2=O)Cc2cc3ccccc3nc2-1` [CAMPTOTHECIN], half-maximal inhibition (IC50) was put at 2.05 µg/mL (≈ 5.88 µM).

Another experiment has as its system Candida albicans. Put plainly: Antimicrobial activity against Candida albicans ATCC 32354 at 1 ug/ml after 24 hrs by agar diffusion method. Format: functional. To be noted: ATCC 32354, 24 h, read-out: DIZ.
On to `CCCCCCCCCCCCCC[N+]12CC[N+](CCCCC[N+]34CC[N+](CCCCCCCCCCCCCC)(CC3)CC4)(CC1)CC2.[Br-].[Br-].[Br-].[Br-]`, for which the zone of inhibition at 1 µg/mL was 0 mm.

For another experiment, the system named is Pseudomonas aeruginosa. The experiment is described as follows: Antimicrobial activity against Pseudomonas aeruginosa ATCC 9027 at 1 ug/ml after 24 hrs by agar diffusion method. Format: functional. To be noted: ATCC 9027, 24 h, read-out: DIZ.
Consider `CCCCCCCCCCCCCC[N+]12CC[N+](CCCCC[N+]34CC[N+](CCCCCCCCCCCCCC)(CC3)CC4)(CC1)CC2.[Br-].[Br-].[Br-].[Br-]`, for which the zone of inhibition at 1 µg/mL was determined as 6 mm.

Another experiment relates to Salmonella enterica. Put plainly: Antimicrobial activity against 10^4 CFU/ml Salmonella enterica ATCC 14028 after 22 hrs by serial microdilution method. Format: functional. To be noted: ATCC 14028, 22 h.
Consider `CCCCCCCCCCCCCC[N+]12CC[N+](CCCCC[N+]34CC[N+](CCCCCCCCCCCCCC)(CC3)CC4)(CC1)CC2.[Br-].[Br-].[Br-].[Br-]`, for which the MBC is above 100 µg/mL and 100 µg/mL was the least that counted as inhibitory (MIC).

Another experiment concerns Staphylococcus aureus. Put plainly: Antimicrobial activity against 10^4 CFU/ml Staphylococcus aureus ATCC 25923 after 22 hrs by serial microdilution method. Type of experiment: functional. To be noted: ATCC 25923, 22 h.
`CCCCCCCCCCCCCC[N+]12CC[N+](CCCCC[N+]34CC[N+](CCCCCCCCCCCCCC)(CC3)CC4)(CC1)CC2.[Br-].[Br-].[Br-].[Br-]` came in with an MBC of 100 µg/mL and a minimum inhibitory concentration (MIC) of 6.3 µg/mL.

The next experiment has as its system Staphylococcus aureus. Put plainly: Antimicrobial activity against Staphylococcus aureus ATCC 25923 at 1 ug/ml after 24 hrs by agar diffusion method. Type of experiment: functional. To be noted: ATCC 25923, 24 h, read-out: DIZ.
For `CCCCCCCCCCCCCC[N+]12CC[N+](CCCCC[N+]34CC[N+](CCCCCCCCCCCCCC)(CC3)CC4)(CC1)CC2.[Br-].[Br-].[Br-].[Br-]`, the zone of inhibition at 1 µg/mL amounted to 8 mm.

In the next experiment the test system is Salmonella enterica. The experiment is described as follows: Antimicrobial activity against 10^7 CFU/ml Salmonella enterica ATCC 14028 after 22 hrs by serial microdilution method. Format: functional. To be noted: ATCC 14028, 22 h.
Regarding `CCCCCCCCCCCCCC[N+]12CC[N+](CCCCC[N+]34CC[N+](CCCCCCCCCCCCCC)(CC3)CC4)(CC1)CC2.[Br-].[Br-].[Br-].[Br-]`, the MBC was above 100 µg/mL and the MIC came out at 100 µg/mL.

The subject of another experiment is Bacillus subtilis. Put plainly: Antimicrobial activity against 10^7 CFU/ml Bacillus subtilis ATCC 6633 after 22 hrs by serial microdilution method. Format: functional. To be noted: ATCC 6633, 22 h.
`CCCCCCCCCCCCCC[N+]12CC[N+](CCCCC[N+]34CC[N+](CCCCCCCCCCCCCC)(CC3)CC4)(CC1)CC2.[Br-].[Br-].[Br-].[Br-]` returned an MBC of 50 µg/mL and an MIC of 12.5 µg/mL.

For another experiment, the system named is Pseudomonas aeruginosa. Put plainly: Antimicrobial activity against 10^7 CFU/ml Pseudomonas aeruginosa ATCC 9027 after 22 hrs by serial microdilution method. Type of experiment: functional. To be noted: ATCC 9027, 22 h.
As for `CCCCCCCCCCCCCC[N+]12CC[N+](CCCCC[N+]34CC[N+](CCCCCCCCCCCCCC)(CC3)CC4)(CC1)CC2.[Br-].[Br-].[Br-].[Br-]`, the MBC is above 100 µg/mL and the MIC was above 100 µg/mL.

In another experiment the test system is Salmonella enterica. Put plainly: Antimicrobial activity against Salmonella enterica ATCC 14028 at 1 ug/ml after 24 hrs by agar diffusion method. To be noted: ATCC 14028, 24 h, read-out: DIZ. Format: functional.
`CCCCCCCCCCCCCC[N+]12CC[N+](CCCCC[N+]34CC[N+](CCCCCCCCCCCCCC)(CC3)CC4)(CC1)CC2.[Br-].[Br-].[Br-].[Br-]`: the zone of inhibition at 1 µg/mL came out at 7 mm.

The subject of the next experiment is Pseudomonas aeruginosa. The experiment is described as follows: Antimicrobial activity against 10^4 CFU/ml Pseudomonas aeruginosa ATCC 9027 after 22 hrs by serial microdilution method. Type of experiment: functional. To be noted: ATCC 9027, 22 h.
`CCCCCCCCCCCCCC[N+]12CC[N+](CCCCC[N+]34CC[N+](CCCCCCCCCCCCCC)(CC3)CC4)(CC1)CC2.[Br-].[Br-].[Br-].[Br-]` came in with an MBC of 50 µg/mL and a minimal inhibitory concentration (MIC) of 50 µg/mL.

The next experiment has as its system Escherichia coli. The experiment is described as follows: Antimicrobial activity against 10^4 CFU/ml Escherichia coli ATCC 25922 after 22 hrs by serial microdilution method. Format: functional. To be noted: ATCC 25922, 22 h.
`CCCCCCCCCCCCCC[N+]12CC[N+](CCCCC[N+]34CC[N+](CCCCCCCCCCCCCC)(CC3)CC4)(CC1)CC2.[Br-].[Br-].[Br-].[Br-]` gave an MBC of 50 µg/mL and an MIC of 25 µg/mL.

The next experiment deals with Bacillus subtilis. The experiment is described as follows: Antimicrobial activity against Bacillus subtilis ATCC 6633 at 1 ug/ml after 24 hrs by agar diffusion method. To be noted: ATCC 6633, 24 h, read-out: DIZ. Format: functional.
For `CCCCCCCCCCCCCC[N+]12CC[N+](CCCCC[N+]34CC[N+](CCCCCCCCCCCCCC)(CC3)CC4)(CC1)CC2.[Br-].[Br-].[Br-].[Br-]`, the zone of inhibition at 1 µg/mL was 7 mm.

For the next experiment, the system named is Staphylococcus aureus. The experiment is described as follows: Antimicrobial activity against 10^7 CFU/ml Staphylococcus aureus ATCC 25923 after 22 hrs by serial microdilution method. To be noted: ATCC 25923, 22 h. Type of experiment: functional.
In turn, `CCCCCCCCCCCCCC[N+]12CC[N+](CCCCC[N+]34CC[N+](CCCCCCCCCCCCCC)(CC3)CC4)(CC1)CC2.[Br-].[Br-].[Br-].[Br-]` had an MBC above 100 µg/mL and an MIC of 50 µg/mL.

Test system in another experiment: not listed separately
The experiment is described as follows: Cytotoxicity against mouse LMTK cells after 72 hrs by MTT assay. Format: cell-based. To be noted: L-M(TK-).
The molecule `CCCCCCCCCCCCCC[N+]12CC[N+](CCCCC[N+]34CC[N+](CCCCCCCCCCCCCC)(CC3)CC4)(CC1)CC2.[Br-].[Br-].[Br-].[Br-]` showed a concentration for half-maximal inhibition (IC50) of 219 µg/mL.

For `CC[C@@]1(O)C(=O)OCc2c1cc1n(c2=O)Cc2cc3ccccc3nc2-1` [CAMPTOTHECIN], half-maximal inhibition (IC50) required 11.7 µg/mL (≈ 33.6 µM).

In a further experiment the test system is Candida albicans. Put plainly: Antimicrobial activity against 10^7 CFU/ml Candida albicans ATCC 32354 after 22 hrs by serial microdilution method. Format: functional. To be noted: ATCC 32354, 22 h.
Molecule `CCCCCCCCCCCCCC[N+]12CC[N+](CCCCC[N+]34CC[N+](CCCCCCCCCCCCCC)(CC3)CC4)(CC1)CC2.[Br-].[Br-].[Br-].[Br-]` came in with an MBC of 25 µg/mL and a minimum inhibitory concentration (MIC) of 25 µg/mL.

Usually IC50 stands for the concentration at which inhibition is half-maximal. The term MIC denotes the lowest concentration found to suppress growth.
